According to patent publication US8362008B2 (The University Of Edinburgh, priority 2007, dated 2013):
Structures can show the parent of a compound that is named as a salt.

Molecular target: T1, human 11β-HSD1 enzyme (Homo sapiens, UniProt P28845)
T1 construct: stably transfected with a construct containing the full-length gene coding for the human 11β-HSD1 enzyme; expressed in transfected cells; host or cells: HEK293 (HEK293/11β-HSD1 cells)
Experiment: Cellular in vitro 11β-HSD1 enzyme inhibition assay (SPA, HEK293/11β-HSD1 cells)
Format: cell-based
Conditions: HEK293, less than or equal to 1000 nM (1 μM)
Protocol: Cellular In Vitro 11β-HSD1 Enzyme Inhibition Assay
Compounds were assessed by a Scintillation Proximity Assay (SPA) performed according to the following protocol:
HEK293 cells were stably transfected with a construct containing the full-length gene coding for the human 11β-HSD1 enzyme to create HEK293/11β-HSD1 cells. Cells were routinely cultured in DMEM containing 10% calf foetal serum, 1% glutamine, and 1% penicillin and streptomycin. Prior to assay, cells were plated at 2×10^4 cells/well in 96-well poly-D-Lys coated flat-bottomed microplates and incubated in 5% CO2, 95% O2 at 37° C. for 24 hours. The media in each well was removed immediately before assay.
Compounds to be tested were dissolved in DMSO at 10 mM and serially diluted into water containing 10% DMSO. Diluted compounds at a volume of 10 μL were added to wells of a 96-well V-bottomed microplate. […] This solution (100 μL/well) was transferred to the plate containing the cells. The plate was then incubated in 5% CO2, 95% O2 at 37° C. for 2 hours.
Following this incubation, 50 μL of the assay solution was transferred to each well of a 96-well scintillation microplate. A mixture consisting of anti-mouse YSi SPA beads, pre-mixed with anti-cortisol antibody in assay buffer (50 mM Tris.HCl, pH 7.0; 300 mM NaCl; 1 mM EDTA, 5% glycerol) was prepared and 50 μL added to each well of the scintillation microplate. An adhesive strip was applied to the microplate and the plate gently shaken for at least 2 hours at room temperature, and then spun briefly on a low speed centrifuge. The plate was read on a scintillation counter suitable for 96-well microplates. For the calculation of percentage inhibition, a series of wells were added to the plate that represented the assay maximum and the assay minimum: one set that contained substrate without cells (mimimum) and another set that contained substrate and cells without any compound (maximum).
The calculation of median inhibitory concentration (IC50) values for the compounds was performed using GraphPad Prism® software. Dose-response curves for each compound were plotted as fractional inhibition and data fitted to the four parameter logistic equation.

T1 sequence (P28845 whole entry): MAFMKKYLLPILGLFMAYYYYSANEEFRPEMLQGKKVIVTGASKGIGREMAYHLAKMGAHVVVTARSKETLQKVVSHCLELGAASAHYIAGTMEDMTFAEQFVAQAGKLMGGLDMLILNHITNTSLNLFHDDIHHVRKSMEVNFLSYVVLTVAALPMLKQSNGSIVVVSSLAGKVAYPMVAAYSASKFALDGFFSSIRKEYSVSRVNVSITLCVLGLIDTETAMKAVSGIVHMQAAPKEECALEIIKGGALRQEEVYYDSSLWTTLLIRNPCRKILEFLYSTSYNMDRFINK

IC50 [nM]	SMILES
≤ 1000	CC(C)(C(N)=O)N1CCC(c2cc(C(=O)N3CCCC4CCCCC43)cs2)CC1 (stereo not drawn) [CC-174]
≤ 1000	O=C(CO)N1CCC(c2cc(C(=O)N3CCC[C@@H]4CCCC[C@@H]43)cs2)CC1 (relative stereo) [CC-053, cis-2-Hydroxy-1-{4-[4-(octahydro-quinoline-1-carbonyl)-thiophen-2-yl]-piperidin-1-yl}-ethanone]
≤ 1000	CC1(C)CC2CC(C)(CN2C(=O)c2csc(C3CCCCC3)c2)C1 (stereo not drawn) [DD-005]
≤ 1000	NC(=O)CN1CCC(c2cc(C(=O)N3CCCC4CCCCC43)cs2)CC1 (stereo not drawn) [CC-108]
≤ 1000	CS(=O)(=O)NCC(=O)N1CCC(c2cc(C(=O)N3CCCC4CCCCC43)cs2)CC1 (stereo not drawn) [CC-148]
≤ 1000	CCc1cc(C(=O)N2CCCCC2)c(Br)s1 [AA-002, (2-Bromo-5-ethyl-thiophen-3-yl)-piperidin-1-yl-methanone]
≤ 1000	CC1(C)CCCN(C(=O)c2csc(C3CCN(C(C)(C)C(N)=O)CC3)c2)CC1 [CC-137]
≤ 1000	CC1(C)CCCN(C(=O)c2csc(C3CCN(C(=O)CCNS(C)(=O)=O)CC3)c2)CC1 [CC-097]
≤ 1000	O=C1COCCN1c1cc(C(=O)N2CCCC3CCCCC32)cs1 (stereo not drawn) [CC-050]
≤ 1000	O=C(c1cccnc1)N1CCC(c2cc(C(=O)N3CCCC4CCCCC43)cs2)CC1 (stereo not drawn) [CC-103]
≤ 1000	CC1(C)CC2CC(C)(CN2C(=O)c2cc(C3CCOCC3)sc2Cl)C1 (stereo not drawn) [CC-070]
≤ 1000	CS(=O)(=O)N1CCC(c2cc(C(=O)N3CCC[C@@H]4CCCC[C@@H]43)cs2)CC1 (relative stereo) [CC-065, cis-[5-(1-Methanesulfonyl-piperidin-4-yl)-thiophen-3-yl]-(octahydro-quinolin-1-yl)-methanone]
≤ 1000	N#CCc1cc(C(=O)N2CCC[C@@H]3CCCC[C@@H]32)cs1 (relative stereo) [AA-022, cis-[4-(Octahydro-quinoline-1-carbonyl)-thiophen-2-yl]-acetonitrile]
≤ 1000	O=C(c1cc(C2CCOCC2)sc1Cl)N1CCCCCC1 [CC-006, Azepan-1-yl-[2-chloro-5-(tetrahydro-pyran-4-yl)-thiophen-3-yl]methanone]
≤ 1000	Cn1ccnc1CN1CCC(c2cc(C(=O)N3CCCC4CCCCC43)cs2)CC1 (stereo not drawn) [CC-154]
≤ 1000	CC(C)(C(N)=O)N1CCC(c2cc(C(=O)N3CCC[C@@H]4CCCC[C@@H]43)cs2)CC1 (relative stereo) [CC-158, cis-2-{4-[4-(Octahydro-quinoline-1-carbonyl)-thiophen-2-yl]-piperidin-1-yl}-isobutyramide]
≤ 1000	CC(=O)N1CCC(c2cc(C(=O)N3CCC[C@@H]4CCCC[C@@H]43)cs2)CC1 (relative stereo) [CC-035, cis-1-{4-[4-(Octahydro-quinoline-1-carbonyl)-thiophen-2-yl]-piperidin-1-yl}-ethanone]
≤ 1000	CNC(=O)C(C)(C)N1CCC(c2cc(C(=O)N3CCCC4CCCCC43)cs2)CC1 (stereo not drawn) [CC-171]
≤ 1000	CC1(C)CC2CC(C)(CN2C(=O)c2csc(C3CCOCC3)c2)C1 (stereo not drawn) [CC-069]
≤ 1000	O=C(CCc1ccncc1)N1CCC(c2cc(C(=O)N3CCCC4CCCCC43)cs2)CC1 (stereo not drawn) [CC-149]
≤ 1000	NC(=O)N1CCC(c2cc(C(=O)N3CCCC4CCCCC43)cs2)CC1 (stereo not drawn) [CC-144]
≤ 1000	CC(=O)N1CCC(c2cc(C(=O)N3CCC[C@@H]4CCCC[C@@H]43)cs2)CC1 (single isomer, unassigned) [CC-114, cis-1-{4-[4-(Octahydro-quinoline-1-carbonyl)-thiophen-2-yl]-piperidin-1-yl}-ethanone]
≤ 1000	CC(=O)N1CCC(c2cc(C(=O)N3CCCCC(C)(C)C3)cs2)CC1 [CC-026]
≤ 1000	CCc1cc(C(=O)N2CCCCC2c2ccccc2)cs1 (stereo not drawn) [AA-021]
≤ 1000	O=C(c1csc(C2CCNC2)c1)N1CCC[C@@H]2CCCC[C@@H]21 (relative stereo) [CC-177, cis-(Octahydro-quinolin-1-yl)-(5-pyrrolidin-3-yl-thiophen-3-yl)-methanone]
≤ 1000	O=C(OCc1ccccc1)N1CCC(c2cc(C(=O)N3CCCCCC3)cs2)CC1 [CC-007, 4-[4-(Azepane-1-carbonyl)-thiophen-2-yl]-piperidine-1-carboxylic acid benzyl ester]
≤ 1000	O=C(c1csc(C2CCOCC2)c1)N1CCC[C@@H]2CCCC[C@@H]21 (racemic) [CC-027, cis-(octahydro-quinolin-1-yl)-[5-(tetrahydro-pyran-4-yl)-thiophen-3-yl]-methanone]
≤ 1000	Cc1ccccc1OCc1cc(C(=O)N2CCCCC2)cs1 [BB-002, Piperidin-1-yl-(5-o-tolyloxymethyl-thiophen-3-yl)-methanone]
≤ 1000	CC1(C)CC2CC(C)(CN2C(=O)c2csc(C3CCNCC3)c2)C1 (stereo not drawn) [CC-072]

SMILES	IC50 [nM]
O=C(c1csc(C2=CCNCC2)c1)N1CCCCC1c1ccccc1 (stereo not drawn) [CC-123]	≤ 1000
CCc1cc(C(=O)N2C3CCCC2CC3)cs1 [AA-016]	≤ 1000

Same assay, conditions: HEK293, more than 1000 nM (1.0 μM) and less than or equal to 30 μM

IC50 [nM]	SMILES
1000 to 30000	O=C(OCc1ccccc1)N1CCC(c2cc(C(=O)N3CCCC4CCCCC43)cs2)CC1 (stereo not drawn) [CC-032]
1000 to 30000	O=C(c1csc(C2CCOCC2)c1)N1CCCCC1 [CC-001, Piperidin-1-yl-[5-(tetrahydro-pyran-4-yl)-thiophen-3-yl]-methanone]
1000 to 30000	CC1(C)CC2CC(C)(CN2C(=O)c2csc(C3CCN(C(=O)OCc4ccccc4)CC3)c2)C1 (stereo not drawn) [CC-071]
1000 to 30000	O=C(c1csc(C2CCCNC2)c1)N1CCCC2(CCCCC2)C1 (stereo not drawn) [CC-080]
1000 to 30000	CC(C)CS(=O)(=O)N1CCC(c2cc(C(=O)N3CCCC4CCCCC43)cs2)CC1 (stereo not drawn) [CC-105]
1000 to 30000	CC1(C)CCCN(C(=O)c2csc(C3CCN(CC(N)=O)CC3)c2)CC1 [CC-139]
1000 to 30000	CC1(C)CCCN(C(=O)c2csc(C3CCNCC3)c2)C1 [CC-013]
1000 to 30000	CC(=O)N1CCC(c2cc(C(=O)N3CCCC4CCCCC43)cs2)CC1 (stereo not drawn) [CC-036]
1000 to 30000	CS(=O)(=O)NCCC(=O)N1CCC(c2cc(C(=O)N3CCCCC3c3ccccc3)cs2)CC1 (stereo not drawn) [CC-128]
1000 to 30000	Cn1cc(CN2CCC(c3cc(C(=O)N4CCC[C@@H]5CCCC[C@@H]54)cs3)CC2)cn1 (racemic) [CC-152, cis-1-(1-Methyl-1H-pyrazol-4-ylmethyl)-4-[4-(octahydro-quinoline-1-carbonyl)-thiophen-2-yl]-piperidinium formate]
1000 to 30000	O=C(c1csc(C2CCNCC2)c1)N1CCN2CCC[C@H]2C1 [CC-041]
1000 to 30000	O=C(c1csc(C2CCCNC2)c1)N1CCCC2CCCCC21 (stereo not drawn) [CC-043]
1000 to 30000	O=C(c1csc(C2CCNCC2)c1)N1CCN2CCCCC2C1 (stereo not drawn) [CC-042]
1000 to 30000	O=C(c1csc(C2CCOCC2)c1)N1CCCC(F)(F)CC1
1000 to 30000	CCc1cc(C(=O)N2CCC(c3ccccc3)C2)c(Cl)s1 (stereo not drawn) [AA-008]
1000 to 30000	O=C(CCN1CCCCC1)N1CCC(c2cc(C(=O)N3CCC[C@@H]4CCCC[C@@H]43)cs2)CC1 (relative stereo) [CC-061, cis-1-{4-[4-(Octahydro-quinoline-1-carbonyl)-thiophen-2-yl]-piperidin-1-yl}-3-piperidin-1-yl-propan-1-one]
1000 to 30000	CC1(C)CCN(C(=O)c2csc(C3CCOCC3)c2)CC1 [CC-011]
1000 to 30000	O=C1CNCCN1c1cc(C(=O)N2CCC[C@@H]3CCCC[C@@H]32)cs1 (relative stereo) [CC-048, cis-1-[4-(Octahydro-quinoline-1-carbonyl)-thiophen-2-yl]-piperazin-2-one]
1000 to 30000	CC(=O)N1CCC(c2cc(C(=O)N3CCCCC3c3ccccc3)cs2)CC1 (stereo not drawn) [CC-098]
1000 to 30000	O=C(c1csc(C2CCNCC2)c1)N1CCCCCC1 [CC-008, Azepan-1-yl-(5-piperidin-4-yl-thiophen-3-yl)-methanone]
1000 to 30000	O=C(c1csc(C2CCN(CCS(=O)(=O)N3CCCC3)CC2)c1)N1CCCC2CCCCC21 (stereo not drawn) [CC-087]
1000 to 30000	CCc1cc(C(=O)N2CCCCCC2)c(C#N)s1 [AA-006]
1000 to 30000	O=C(c1csc(C2CCCNC2)c1)N1CCCCCC1 (stereo not drawn) [CC-015, Azepan-1-yl-(5-piperidin-3-yl-thiophen-3-yl)-methanone]
1000 to 30000	CC1(C)CCCN(C(=O)c2csc(N3CCOCC3)c2)C1 [CC-010, (3,3-Dimethyl-piperidin-1-yl)-(5-morpholin-4-yl-thiophen-3-yl)-methanone]
1000 to 30000	O=C(c1csc(C2CCNCC2)c1)N1CCC[C@@H]2CCCC[C@@H]21 (single isomer, unassigned) [CC-039, cis-(octahydro-quinolin-1-yl)-(5-piperidin-4-yl-thiophen-3-yl)-methanone]

SMILES	IC50 [nM]
CC(C)(C)C(=O)N1CCC(c2cc(C(=O)N3CCCC4CCCCC43)cs2)CC1 (stereo not drawn) [CC-100]	1000 to 30000
